Data as given in US20260176254A1, “INHIBITORS OF PROSTATE SPECIFIC MEMBRANE ANTIGEN AND USE THEREOF” (SHANGHAI SINOTAU BIOTECH. CO., LTD, priority 2023, published 2026).

Key:
[1] = target: T1, recombinant human PSMA (rhPSMA) (Homo sapiens, UniProt Q04609); assay: Naaladase assay (fluorescence-based Naaladase activity inhibition); format: biochemical; conditions: rhPSMA 0.4 μg/mL, substrate N-Acetyl-Asp-Glu 40 μM, 37° C. one hour
T1 construct: purchased Sino Biological
Experimental: Naaladase activity inhibition was determined using a fluorescence-based assay. Briefly, the solution containing the substrate N-Acetyl-Asp-Glu (Sigma-Aldrich) at 40 μM and the compound at concentrations from 0.15 nM to 1000 nM was mixed at equal volume with recombinant human PSMA (rhPSMA, Sino Biological) at 0.4 μg/mL, in assay buffer (50 mM HEPES, 100 mM NaCl, pH 7.5). The enzymatic reaction was proceeded by incubation at 37° C. for one hour and then stopped by heating at 95° C. for 5 minutes. A solution of 15 mM ortho-phthaldialdehyde (Sigma-Aldrich) was added to all vials and incubated for 10 min at ambient temperature. The reaction solutions were loaded onto a 96-well flat clear bottom black microplates (Corning) and read at excitation and emission wavelengths of 330 and 450 nm, respectively, using a microplate reader (Tecan). The data were analyzed by a one-site total binding regression algorithm of GraphPad Prism (GraphPad Software).

LNCaP cells = assay: Cell uptake assay of 177Lu-labeled compound; format: cell-based; conditions: for Membrane (%): cell membrane fraction; for Intracellular (%): intracellular fraction
Experimental: LNCaP (ATCC) cells were cultured in RPMI 1640 medium (Gibco) containing 10% fetal bovine serum (FBS) (Gibco), in 5% carbon dioxide (CO2), at 37.0° C. in a humidified incubator. 2×10^5 LNCaP cells/well were seeded in a 24-well plate the day before experiment. 7.4 KBq (200 nCi) of ^177Lu-labeled compound was added into each well, and then incubated in 37° C., 5% CO2 incubator for varying durations. At each time point, the supernatant, cell membrane and intracellular fractions were collected. The cell membrane fraction was recovered by incubating cells with buffer containing 50 mM glycine and 100 mM NaCl, pH 2.7 for 10 minutes at 37° C., while the intracellular fraction was recovered from cells treated with 1M NaOH. Activity of ^177Lu-labelled compound in every component was detected by gamma counter.

T1 sequence (Q04609 whole entry): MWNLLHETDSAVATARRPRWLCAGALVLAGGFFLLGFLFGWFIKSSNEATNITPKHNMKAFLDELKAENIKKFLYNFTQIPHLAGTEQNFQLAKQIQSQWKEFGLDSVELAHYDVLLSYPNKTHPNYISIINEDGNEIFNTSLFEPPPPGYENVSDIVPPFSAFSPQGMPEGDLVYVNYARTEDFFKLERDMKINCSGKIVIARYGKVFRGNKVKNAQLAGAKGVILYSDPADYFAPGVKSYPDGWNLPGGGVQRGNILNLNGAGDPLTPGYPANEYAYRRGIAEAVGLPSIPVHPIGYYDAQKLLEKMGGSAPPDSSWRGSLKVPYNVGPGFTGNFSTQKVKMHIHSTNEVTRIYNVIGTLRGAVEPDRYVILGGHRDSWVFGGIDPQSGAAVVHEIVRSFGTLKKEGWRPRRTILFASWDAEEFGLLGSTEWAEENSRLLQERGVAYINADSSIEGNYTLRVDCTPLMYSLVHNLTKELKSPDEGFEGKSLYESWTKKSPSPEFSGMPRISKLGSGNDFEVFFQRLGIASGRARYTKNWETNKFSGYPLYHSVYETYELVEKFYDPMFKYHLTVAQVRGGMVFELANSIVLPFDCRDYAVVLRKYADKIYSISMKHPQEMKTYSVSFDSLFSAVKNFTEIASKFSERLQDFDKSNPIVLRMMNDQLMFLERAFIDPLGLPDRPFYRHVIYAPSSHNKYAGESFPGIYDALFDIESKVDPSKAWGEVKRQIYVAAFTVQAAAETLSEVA

| Structure (SMILES) | IC50 [1] | Membrane (%) (LNCaP cells; 1 hr) | Membrane (%) (LNCaP cells; 4 hr) | Membrane (%) (LNCaP cells; 24 hr) | Intracellular (%) (LNCaP cells; 1 hr) | Intracellular (%) (LNCaP cells; 4 hr) | Intracellular (%) (LNCaP cells; 24 hr) |
| --- | --- | --- | --- | --- | --- | --- | --- |
| O=C(O)CC[C@H](NC(=O)N[C@@H](CCCCNC(=O)[C@H](Cc1ccc2ccccc2c1)Nc1c(NC23CCC(NC(=O)CN4CCN(CC(=O)O)CCN(CC(=O)O)CCN(CC(=O)O)CC4)(CC2)CC3)c(=O)c1=O)C(=O)O)C(=O)O [E6, (((S)-1-carboxy-5-((S)-2-((3,4-dioxo-2-((4-(2-(4,7,10-tris(carboxymethyl)-1,4,7,10-tetraazacyclododecan-1-yl)acetamido)bicyclo[2.2.2]octan-1-yl)amino)cyclobut-1-en-1-yl)amino)-3-(naphthalen-2-yl)propanamido)pentyl)carbamoyl)-L-glutamic acid] | 1.5 nM | 6.3% | 10.1% | 11.6% | 5.7% | 18.9% | 45.5% |
| O=C(O)CN1CCN(CC(=O)O)CCN(CC(=O)NC23CCC(Nc4c(N[C@@H](Cc5c6ccccc6cc6ccccc56)C(=O)NCCCC[C@H](NC(=O)N[C@@H](CNC(=O)C(=O)O)C(=O)O)C(=O)O)c(=O)c4=O)(CC2)CC3)CCN(CC(=O)O)CC1 [E8] | 1.6 nM | 4.8% | 12.8% | 7.3% | 11.5% | 39.0% | 77.9% |
| O=C(O)CCC[C@H](NC(=O)N[C@@H](CCCCNC(=O)[C@H](Cc1c2ccccc2cc2ccccc12)Nc1c(Nc2ccc3c(c2)CCN(C(=O)CN2CCN(CC(=O)O)CCN(CC(=O)O)CCN(CC(=O)O)CC2)C3)c(=O)c1=O)C(=O)O)C(=O)O [E14] | 1.7 nM | 9.7% | 14.8% | 12.9% | 7.9% | 25.1% | 49.5% |
| O=C(O)CCC[C@H](NC(=O)N[C@@H](CCCCNC(=O)[C@H](Cc1c2ccccc2cc2ccccc12)Nc1c(NC23CCC(NC(=O)CN4CCN(CC(=O)O)CCN(CC(=O)O)CCN(CC(=O)O)CC4)(CC2)CC3)c(=O)c1=O)C(=O)O)C(=O)O [E4, (S)-2-(3-((S)-5-((S)-3-(anthracen-9-yl)-2-((3,4-dioxo-2-((4-(2-(4,7,10-tris(carboxymethyl)-1,4,7,10-tetraazacyclododecan-1-yl)acetamido)bicyclo[2.2.2]octan-1-yl)amino)cyclobut-1-en-1-yl)amino)propanamido)-1-carboxypentyl)ureido)hexanedioic acid] | 1.4 nM | 6.4% | 12.8% | 13.0% | 7.2% | 23.0% | 57.4% |
